Experimental data taken from patent US20220362182A1, “METHODS FOR REVERSING HEPATIC STEATOSIS” (BRIGHTSEED, INC., priority 2020, published 2022).
Entries after “also recorded” stand apart in the source; their conditions may differ.

Tests used:
[1] = test system: T6PNE cells; test: fat clearance assay in palmitate-treated T6PNE cells (Oil Red O, Nile Red, triglyceride); type: cell-based, human; details: for fat clearance (stored fat by Oil Red O and Nile Red staining): 0.25 mM palmitate for 2 days; for effect on fat clearance induced by NCT: palmitate, inhibitor or siRNA plus NCT
Protocol: Oil red O and Nile Red staining were used to measure lipid accumulation. Oil Red O staining was done as known in the art. Briefly, fixed cells were incubated with Oil Red O solution (Poly Scientific) for 3 h, followed by photomicrography (Olympus, IX71). For Nile Red staining, dye (1: 500 in PBS from 1 mg/ml in ethanol stock, Sigma) was added for 30 mins and DAPI added for 10 mins at room temperature. Quantification of Nile Red staining was done with a Celigo imaging cytometer (Nexcelom Bioscience). More than 4000 cells were analyzed for each quantification. The number of Nile Redpositive cells was normalized to the DAPI-positive cell number for each well and fold change was calculated relative to a DMSO control well.
Palmitate (150 mM) (Sigma-Aldrich) was prepared in 50% ethanol and precomplexed with 15% fatty acid-free BSA (Research Organics, Cleveland, Ohio, USA) in a 37 C water shaker. BSA-precomplexed palmitate was used as a 12 mM stock solution for all assays with a final concentration of 0.25 mM palmitate in cell culture medium.
siRNAs were purchased from Ambion. For transfections, 24 μL of each siRNA (1 μM stock) was mixed with 90 μL of a 1:100 dilution of Lipofectamine RNAi MAX (Invitrogen, Waltham, Mass., USA) in Opti-MEM. Transfection was done in 24 well plates (Thermo Fisher Scientific, Waltham, Mass., USA), by incubation with cells for 30 min. at room temperature. One day after transfection, cells were transferred to 96 well plates (2000 cells per well) and incubated at 37° C. for an additional day. Forty-eight hours after transfection, either palmitate-BSA complex or BSA control plus or minus compounds was added for 2 days. For validation of siRNAs, transfected cells were harvested for RNA purification and QPCR for each gene 2 days after transfection.
The bicinchoninic acid (BCA) protein assay kit assay (Thermo scientific) was used to measure protein amount for DART, Western blotting and TG assays. Absorbance at 550 nm was determined using a plate reader.

[2] = test system: human insulin promoter; test: modified insulin promoter assay repressed with palmitate; type: cell-based; details: insulin promoter activity repressed with palmitate
Protocol: Alverine and benfluorex were ascertained in a modification of the insulin promoter assay in which the level of insulin promoter activity was repressed with palmitate. […] Cells were treated with 0.25 mM palmitate for 2 days in the presence and absence of NCT or NFT (10 μM).

[3] = clinical trials for type 2 diabetes; cited from earlier work
[4] = molecular target: T1, HNF4α (Homo sapiens, UniProt P41235); test: T6PNE insulin promoter assay (human insulin promoter-GFP transgene); type: cell-based; parameters: endogenous in cells; host or cells: T6PNE cells; details: T6PNE cells, GFP-positive cells relative to DMSO
T1 sequence (P41235 1-474): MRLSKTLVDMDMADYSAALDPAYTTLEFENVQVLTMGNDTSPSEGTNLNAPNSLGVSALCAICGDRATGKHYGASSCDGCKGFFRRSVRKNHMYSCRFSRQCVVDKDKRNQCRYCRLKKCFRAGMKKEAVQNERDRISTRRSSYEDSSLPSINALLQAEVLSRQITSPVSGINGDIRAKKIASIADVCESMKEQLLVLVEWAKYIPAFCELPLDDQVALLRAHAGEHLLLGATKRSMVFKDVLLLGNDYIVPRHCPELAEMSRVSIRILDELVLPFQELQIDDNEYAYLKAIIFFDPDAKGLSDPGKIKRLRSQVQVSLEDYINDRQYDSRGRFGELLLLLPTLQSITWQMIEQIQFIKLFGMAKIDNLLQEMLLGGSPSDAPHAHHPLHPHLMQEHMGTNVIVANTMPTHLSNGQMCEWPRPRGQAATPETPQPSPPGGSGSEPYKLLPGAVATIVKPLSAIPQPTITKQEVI
Protocol: The T6PNE insulin promoter assay has been described previously and was performed here with slight modifications as follows: T6PNE cells were seeded at 200 cells per well in 384-well tissue culture plates (Greiner Bio-One) in the presence of 0.5 μM tamoxifen. Compounds described herein in DMSO were dispensed with an Echo 555 Acoustic Liquid Handler (Beckman Coulter). Three days after compound addition, cells were fixed in 4% paraformaldehyde (USBio) for 15 min and stained with DAPI (0.167 μg/ml, Invitrogen). Blue (DAPI) and green (GFP) channels were imaged using a Celigo imaging cytometer (Nexcelom Bioscience). The number of GFPpositive cells was normalized to the DAPI-positive cell number and fold change calculated relative to the DMSO control.
T6PNE cells were maintained in RPMI (5.5mM glucose, Corning) supplemented with 10% fetal bovine serum (FBS, Sigma-Aldrich) and 1% penicillin-streptomycin (pen-strep, Gibco). Cells were maintained in 5% CO2 at 37° C. For the insulin promoter assay, 0.5 μM tamoxifen (Sigma-Aldrich) was added to T6PNE cell culture media. HepG2 or HeLa cells were cultured in DMEM (high glucose, Corning) supplemented with 10% FBS and 1% pen-strep and maintained at 5% CO2, 37° C.

[5] = test system: p62; test: p62 Western blot in T6PNE cells; type: cell-based, human; details: NCT 10 μM, RA 10 μM, fenretinide
Protocol: (§1) Whole-cell extracts were prepared by incubation in RIPA buffer (Invitrogen) containing protease inhibitors (Calbiochem, San Diego, Calif.). Protein ([…]) was separated on 12% or 16% Tri-Glycine gels (Invitrogen) and transferred to Immobilon P membrane (0.2 μm pore, Millipore). After 1 h in phosphate-buffered saline-Tween (PBST) with 3% milk, membrane was incubated with antibodies to HNF4α (mouse, Novus, 1:1000), LC3B (rabbit, Novus, 1:500), p62 (SQSTM1, mouse, Santa Cruz, 1:1000) or β-actin (mouse, Santa Cruz, 1:2000), followed by secondary antibody conjugated to horseradish peroxidase (1:5000, Jackson Immune).

[6] = test system: dihydroceramides; test: lipidomic analysis of ceramides and dihydroceramides in T6PNE cells; type: cell-based, human
Protocol: Ceramides and dihydroceramides were measured in the UCSD Lipidomics Core Facility as previously described (Quehenberger et al.). Briefly, samples were extracted using the butanol: methanol (BUME) method. The lipid layer was collected and run on a Thermo-Vanquish UPLC (Thermo Scientific) with a Cortecs T3 (C18), 2.1 mm×150 mm; 1.8 uT3 column and a binary solvent system. Mass spectrometry employed a Thermo Q Exactive instrument with MS/MS data dependent acquisition scan mode and LipidSearch software (Thermo Fisher Scientific).

[7] = test system: HNF4α; details: previous finding, cited from earlier work
[8] = molecular target: T1, HNF4α; test: DARTS assay (HNF4α protease sensitivity) in HepG2 cells; type: binding; parameters: Total cell protein was extracted; endogenous in cells; host or cells: HepG2 cells; details: 40 or 80 μM for 16 h, subtilisin
Protocol: DARTS assays were conducted as described in the art. HepG2 cells were treated with DMSO, BI6015, NCT, NFT at a concentration of 40 or 80 μM for 16 hr. Total cell protein was extracted and measured by BCA protein assay (Thermo Scientific). Each sample was split into two aliquots for proteolysis without (−) or with (+) Subtilisin (Sigma-Aldrich). Forty […] of cell lysate was incubated with or without protease (40 ng/ml subtilisin) for 35 min at room temperature.
as §1

[9] = test system: CYP26A1 mRNA; test: CYP26A1 mRNA in T6PNE cells; type: cell-based, human; details: 2 days, 0.25 mM palmitate, NCT 10 μM, 4-OH-RA 20 μM
Protocol: Quantitative PCR (Q-PCR) from in vitro cell culture experiments used total RNA purified using RNeasy Kits (Qiagen). For liver tissue samples, total RNA was isolated using Trizol (Invitrogen) and prepared for RNAseq (mouse liver DMSO and NCT, N=3). cDNA was amplified using 3 μg of total RNA using qScript cDNA SuperMix (Quanta BioSciences, Beverly, Mass., USA). QPCR analysis was performed using SYBR® Select Master Mix (Applied Biosystems) and ABI 7900HT (Applied Biosystems, Thermo Fisher Scientific). The Ct values of mRNA expression were then normalized to the 18 s rRNA values and are expressed as fold change over samples from mice fed normal chow for in vivo experiments or DMSO controls for cell culture experiments.

dihydroceramide
fat clearance (stored fat by Oil Red O and Nile Red staining) [1]: active at inducing fat clearance

CC(Cc1cccc(C(F)(F)F)c1)NCCOC(=O)c1ccccc1 (centres unmarked) [benfluorex, reference compound]
fatty acid-mediated repression of the human insulin promoter [2]: reversed the fatty acid-mediated repression of the human insulin promoter | HbA1c [3]: effective at reducing HbA1c | insulin promoter activity / HNF4α activation [4]: relatively weak activators; also recorded: fairly weak HNF4α activators

CCCCCCCCc1ccc(CCC(N)(CO)CO)cc1 [FTY720]
fat clearance (stored fat by Oil Red O and Nile Red staining) [1]: neither S1P nor FTY720 had any effect on fat clearance

O=C(Oc1nsnc1N1CCCCC1)N1CCCCC1 [Lalistat 2]
effect on fat clearance induced by NCT [1]: eliminated the ability of N-trans-caffeoyltyramine to effect fat clearance; also recorded: inhibited the ability of NCT to promote fat clearance | effect on fat clearance induced by NCT ([1]; listed as Lalistat2): inhibits the effect of NCT on fat clearance

CCC(CC)C(c1ccc(Nc2nc3ccccc3s2)cc1)n1cncn1 (centres unmarked) [talarazole]
effect on fat clearance induced by NCT [1]: inhibited fat clearance by NCT

CCN(CCCc1ccccc1)CCCc1ccccc1 [alverine, reference compound]
fatty acid-mediated repression of the human insulin promoter [2]: reversed the fatty acid-mediated repression of the human insulin promoter | insulin promoter activity / HNF4α activation [4]: relatively weak activators; also recorded: fairly weak HNF4α activators

CCCCCCCCCCCCC/C=C/[C@@H](O)[C@@H](N)COP(=O)(O)O [S1P, sphingosine-1-phosphate]
fat clearance (stored fat by Oil Red O and Nile Red staining) [1]: did not have any effect on fat storage; also recorded: neither S1P nor FTY720 had any effect on fat clearance

CC1=C(/C=C/C(C)=C/C=C/C(C)=C/C(=O)Nc2ccc(O)cc2)C(C)(C)CCC1 [Fenretinide, fenretinide, reference compound]
fat clearance (stored fat by Oil Red O and Nile Red staining) [1]: strongly positive | fat clearance (stored fat by Oil Red O and Nile Red staining) ([1]; listed as fenretinide): induced fat clearance from T6PNE cells | p62 protein expression normalized to actin [5]: had a statistically significant effect | dihydroceramide production ([6]; 2 days after treatment): induced multiple identical dihydroceramides | ceramide (Cer)/dihydroceramide (DH-Cer) ratio ([6]; NCT+RA 10 μM, fenretinide 5 μM): substantial decrease

Cc1ccc([N+](=O)[O-])cc1S(=O)(=O)n1c(C)nc2ccccc21 [BI6015]
hepatic steatosis ([7]; in vitro and in vivo): caused hepatic steatosis in vitro and in vivo | HNF4α expression in the liver ([7]; in vivo): caused loss of HNF4a expression in the liver; also recorded: caused loss of HNF4α expression in the liver | HNF4α proteolytic sensitivity / conformational change [8]: induced a conformational change in HNF4α

Nn1nnc2ccccc21 [ABT]
effect on fat clearance induced by NCT [1]: inhibited fat clearance by NCT

CCCCCCCCCCCCCC1=C([C@H](O)[C@@H](CO)NC(=O)CCCCCCC)C1 [GT-11, N-[(1R,2S)-2-hydroxy-1-hydroxymethyl-2-(2-tridecyl-1-cyclopropenyl)ethyl] octanamide]
fat clearance (stored fat by Oil Red O and Nile Red staining) [1]: strongly positive; also recorded: increase fat clearance

CC1=C(/C=C/C(C)=C/C=C/C(C)=C/C(=O)O)C(C)(C)CCC1O (centres unmarked) [4-OH RA, reference compound]
fat clearance (stored fat by Oil Red O and Nile Red staining) [1]: induced fat clearance from T6PNE cells | CYP26A1 mRNA level [9]: induced an increase in CYP26A1 mRNA
